Assay results from patent publication US9416115B2, “Fused heterocyclic compounds as ion channel modulators” (Gilead Sciences, Inc., priority 2013, dated 2016).

These molecules were tested against hNav1.7 (Homo sapiens, UniProt Q15858) (assay: Voltage-dependent inhibition of the Nav1.7 sodium channel). Conditions: voltage-dependent block of peak current.
Type: cell-based
Protocol: HEK-293 cells stably expressing wild-type (WT) hNav1.7 were obtained from Scottish Biomedical (Glasgow, Scotland, United Kingdom). Cells are maintained with standard tissue culture procedures and stable channel expression is maintained with 500 ug/mL G418 in the culture medium. Unless otherwise noted, all reagents are purchased from Sigma-Aldrich (St Louis, Mo., U.S.A.).
Assays measuring Voltage-Dependent Block (VDB) of Nav1.7 are performed on an automated electrophysiology platform, QPatch 16X or QPatch HT (Sophion Bioscience, Copenhagen, Denmark), using the whole cell patch clamp technique to measure currents through the cell membrane. Series resistance compensation is set to 100% and series resistance and whole-cell compensation are performed automatically. Currents stored in the Sophion Bioscience Oracle database (Sophion Bioscience, Copenhagen, Denmark). Analysis is performed using QPatch Assay software and data are compiled in Excel 2010 (Microsoft, Seattle, Wash., U.S.A.).
The internal (pipette) solution consists of (in mM) 105 CsF, 10 NaF, 20 CsCl, 2 EGTA, 10 HEPES, 10 Dextrose with a pH of 7.35 and osmolarity of 300 mOsmol/kg. The external (bath) solution contains in (mM): 140 NaCl, 4 KCl, 1.8 CaCl2, 1 MgCl2, 10 dextrose, 10 HEPES, with a pH of 7.35 and osmolarity of 310 mOsmol/kg. Experiments are carried out at 23-25° C.
Compound stocks are routinely made by the Gilead Sample Bank in vials to 10 mM in dimethyl sulfoxide (DMSO). In some cases, when compounds are not soluble in DMSO, they are made in 100% ethanol. Stocks are sonicated as necessary. Compounds are diluted in extracellular solution using a MicroLab Nimbus (Hamilton Robotics, Reno, Nev.) to 1 μM in glass vials and transferred to glass well plates before robotic addition to the cells.
Cells are allowed to stabilize for 10 min after establishment of the whole-cell configuration before current is measured. The test compound is applied 3 times at 120 second intervals to allow for equilibration. Currents were leak subtracted using a P/4 procedure, low-pass Bessel filtered at 5 kHz and digitized at 25 kHz. Results are presented as mean percentage inhibition.
Voltage-dependent block of Nav1.7 peak current was measured during a voltage step to 0 mV (20 ms) following a voltage step pre-conditioning steps (−60 mV for 10 sec followed by −120 mV for 10 ms). The holding potential was −120 mV and this voltage protocol induces half maximal inactivation of Nav1.7. The voltage protocol for VDB was performed every 45 seconds in the absence and presence of compound and percentage inhibition was calculated with respect to the compound free condition.

hNav1.7, sequence (Q15858 whole entry): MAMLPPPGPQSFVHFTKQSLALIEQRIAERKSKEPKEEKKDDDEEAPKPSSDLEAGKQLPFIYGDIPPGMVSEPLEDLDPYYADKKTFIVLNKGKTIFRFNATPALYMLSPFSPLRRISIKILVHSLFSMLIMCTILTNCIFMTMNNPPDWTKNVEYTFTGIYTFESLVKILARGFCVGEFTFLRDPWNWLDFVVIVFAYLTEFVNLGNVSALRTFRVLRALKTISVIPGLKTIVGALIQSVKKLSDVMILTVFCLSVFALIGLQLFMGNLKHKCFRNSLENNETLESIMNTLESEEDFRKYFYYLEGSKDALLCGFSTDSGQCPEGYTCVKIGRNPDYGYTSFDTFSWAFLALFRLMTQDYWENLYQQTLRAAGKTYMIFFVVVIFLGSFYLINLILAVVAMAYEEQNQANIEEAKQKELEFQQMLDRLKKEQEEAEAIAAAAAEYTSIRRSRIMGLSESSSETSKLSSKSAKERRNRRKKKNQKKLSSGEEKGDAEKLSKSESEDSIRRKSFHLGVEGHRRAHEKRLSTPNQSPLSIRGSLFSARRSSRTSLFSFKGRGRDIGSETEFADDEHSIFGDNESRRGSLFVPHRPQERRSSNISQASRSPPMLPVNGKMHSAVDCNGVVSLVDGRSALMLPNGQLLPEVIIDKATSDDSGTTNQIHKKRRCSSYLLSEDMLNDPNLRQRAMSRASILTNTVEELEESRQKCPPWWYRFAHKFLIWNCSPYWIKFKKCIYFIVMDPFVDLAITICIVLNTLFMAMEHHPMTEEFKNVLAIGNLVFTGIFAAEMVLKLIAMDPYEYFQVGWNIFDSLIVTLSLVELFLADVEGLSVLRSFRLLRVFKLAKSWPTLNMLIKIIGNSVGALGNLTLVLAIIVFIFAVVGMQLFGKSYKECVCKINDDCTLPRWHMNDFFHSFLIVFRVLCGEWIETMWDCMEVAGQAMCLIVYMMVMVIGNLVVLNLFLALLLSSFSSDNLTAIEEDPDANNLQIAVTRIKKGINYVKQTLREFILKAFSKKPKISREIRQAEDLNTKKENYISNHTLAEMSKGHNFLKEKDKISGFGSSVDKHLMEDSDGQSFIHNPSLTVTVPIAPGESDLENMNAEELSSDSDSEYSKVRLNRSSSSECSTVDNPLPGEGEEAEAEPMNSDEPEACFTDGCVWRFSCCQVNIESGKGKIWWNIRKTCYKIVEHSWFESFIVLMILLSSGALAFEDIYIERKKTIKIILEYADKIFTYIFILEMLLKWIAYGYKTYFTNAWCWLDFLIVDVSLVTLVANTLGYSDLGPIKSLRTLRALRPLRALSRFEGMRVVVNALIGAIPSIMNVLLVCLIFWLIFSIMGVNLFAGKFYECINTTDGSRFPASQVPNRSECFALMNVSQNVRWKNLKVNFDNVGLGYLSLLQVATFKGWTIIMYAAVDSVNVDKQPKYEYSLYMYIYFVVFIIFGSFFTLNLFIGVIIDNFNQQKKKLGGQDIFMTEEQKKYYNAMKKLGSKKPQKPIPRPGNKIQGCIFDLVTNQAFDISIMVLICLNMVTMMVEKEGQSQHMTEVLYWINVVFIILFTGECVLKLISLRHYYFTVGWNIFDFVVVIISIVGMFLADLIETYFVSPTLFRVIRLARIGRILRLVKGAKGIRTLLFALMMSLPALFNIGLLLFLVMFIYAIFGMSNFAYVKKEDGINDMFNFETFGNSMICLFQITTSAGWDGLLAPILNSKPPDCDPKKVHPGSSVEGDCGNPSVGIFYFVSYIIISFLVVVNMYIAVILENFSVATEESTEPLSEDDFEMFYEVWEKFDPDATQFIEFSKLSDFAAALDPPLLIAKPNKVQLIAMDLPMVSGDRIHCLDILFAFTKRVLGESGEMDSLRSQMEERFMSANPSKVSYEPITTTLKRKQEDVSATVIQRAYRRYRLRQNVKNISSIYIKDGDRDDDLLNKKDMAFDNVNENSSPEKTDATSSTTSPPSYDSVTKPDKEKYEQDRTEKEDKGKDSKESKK

Row | SMILES | Nav 1.7-VDB 1 uM
1 | COc1cc(OC(F)(F)F)ccc1-c1ccc2onc(OCc3ncccn3)c2c1 [Example 4, 5-(2-methoxy-4-(trifluoromethoxy)phenyl)-3-(pyrimidin-2-ylmethoxy)benzo[d]isoxazole] | 28.6 percentage inhibition
2 | Fc1cc(C(F)(F)F)ccc1-c1ccc2onc(OCc3ncccn3)c2c1 [Example 6, 5-(2-fluoro-4-(trifluoromethyl)phenyl)-3-(pyrimidin-2-ylmethoxy)benzo[d]isoxazole] | 15.6 percentage inhibition
3 | FC(F)(F)Oc1cccc(-c2ccc3onc(OCc4ncccn4)c3c2)c1 [Example 10, 3-(pyrimidin-2-ylmethoxy)-5-(3-(trifluoromethoxy)phenyl)benzo[d]isoxazole] | 10.0 percentage inhibition
4 | Cc1nnc(COc2noc3ccc(-c4ccc(OC(F)(F)F)cc4)cc23)o1 [Example 99, 3-((5-methyl-1,3,4-oxadiazol-2-yl)methoxy)-5-(4-(trifluoromethoxy)phenyl)benzo[d]isoxazole] | 59.3 percentage inhibition
